In US20230146455A1, “TREATMENT OF INFLAMMATORY DISEASES WITH PEPTIDES AND PHARMACEUTICAL COMPOSITIONS” (Yuyu Pharma, Inc., priority 2020, published 2023):
Values joined by “and” are separate entries in the source; they are usually repeats but may differ in a detail not shown here. Equal entries are not always repeated. Where a SMILES comes first, the peptide text is derived from it. [ ]: non-standard residue; d: D form. Hyp = O=C(O)[C@@H]1C[C@@H](O)CN1

Tested on: IL-1 alpha/IL-1F1
Test: Example 8 main study Luminex, LPS hPBMCs: IL-1 alpha/IL-1F1
Type: cell-based, human
Protocol: Human PBMCs were pretreated with YY-101, YDE-011, YDE-043 or reference compound; Xiidra® at various concentration (ranging from […] to 500 nM) for 2 h before stimulation. An equal volume of 0.5% DMSO was used as a vehicle control. Then, the cells were treated with LPS at 5 ug/ml, which was selected based on the pilot study. The supernatants from treated cells were harvested at 24 h and placed in a 96 well for Luminex cytokine & chemokine profiling using a Luminex 200 multiplex assay (Luminex; R&D system, USA).
The main study arm with triplicate wells per group in a 24-well plate: • 1. Blank • 2. PBMC: 0.5% DMSO • 3. PBMC+LPS (5 ug/ml) • 4. PBMC+YY-101 500 nM • 5. PBMC+YY-101 50 nM • 6. PBMC+YY-101 5 nM • 7. PBMC+YY-101 0.5 nM • 8. PBMC+LPS (5 ug/ml)+Xiidra® 500 nM • 9. PBMC+LPS (5 ug/ml)+Xiidra® 50 nM • 10. PBMC+LPS (5 ug/ml)+Xiidra® 5 nM • 11. PBMC+LPS (5 ug/ml)+Xiidra® 0.5 nM • 12. PBMC+LPS (5 ug/ml)+Xiidra® 0.05 nM • 13. PBMC+LPS (5 ug/ml)+Xiidra® 0.005 nM • 14. PBMC+LPS (5 ug/ml)+YY-101 500 nM • 15. PBMC+LPS (5 ug/ml)+YY-101 50 nM • 16. PBMC+LPS (5 ug/ml)+YY-101 5 nM • 17. PBMC+LPS (5 ug/ml)+YY-101 0.5 nM • 18. PBMC+LPS (5 ug/ml)+YY-101 0.05 nM • 19. PBMC+LPS (5 ug/ml)+YY-101 0.005 nM • 20. PBMC+LPS (5 ug/ml)+YDE-011 500 nM • 21. PBMC+LPS (5 ug/ml)+YDE-011 50 nM • 22. PBMC+LPS (5 ug/ml)+YDE-011 5 nM • 23. PBMC+LPS (5 ug/ml)+YDE-011 0.5 nM • 24. PBMC+LPS (5 ug/ml)+YDE-011 0.05 nM • 25. PBMC+LPS (5 ug/ml)+YDE-011 0.005 nM • 26. PBMC+LPS (5 ug/ml)+YDE-043 500 nM • 27. PBMC+LPS (5 ug/ml)+YDE-043 50 nM • 28. PBMC+LPS (5 ug/ml)+YDE-043 5 nM • 29. PBMC+LPS (5 ug/ml)+YDE-043 0.5 nM • 30. PBMC+LPS (5 ug/ml)+YDE-043 0.05 nM • 31. PBMC+LPS (5 ug/ml)+YDE-043 0.005 nM
Multiplex assay was used to measure 30 cytokines and chemokines. The 1:200 diluted cell supernatant and serial dilution of the standard were dispensed into a 96 well plate at 50 ul/well. Then, the pre-mixed cocktail of antibody-coated magnetic beads was dispensed at 50 ul/well and incubated at room temperature for 2 h in a horizontal orbital microplate shaker at 800±500 rpm. The beads were washed using a magnetic device to prevent loss. The biotin-antibody was dispensed in 50 ul of each well and incubated at room temperature for 1 h in a shaker at 800±500 rpm. After washing, streptavidin-PE was added at 50 ul/well and incubated at room temperature for 30 min in a shaker under the same conditions. Finally, after washing, wash buffer (100 ul/well) was added to the plate and incubated in a shaker for 2 min. The Luminex™ 200 setting were set according to the manufacturer's protocol. The data was calculated with a standard five-parameter logistic nonlinear regression analysis of the data (xPonent software 4.2, USA). Results were presented as concentration (ng/ml or pg/ml).

[1] = PBMC + LPS(5 ug/ml) + test article 0.005 nM, Mean
[2] = PBMC + LPS(5 ug/ml) + test article 0.005 nM, individual replicates
[3] = PBMC + LPS(5 ug/ml) + test article 0.05 nM, Mean
[4] = PBMC + LPS(5 ug/ml) + test article 0.05 nM, individual replicates
[5] = PBMC + LPS(5 ug/ml) + test article 0.5 nM, Mean
[6] = PBMC + LPS(5 ug/ml) + test article 0.5 nM, individual replicates
[7] = PBMC + LPS(5 ug/ml) + test article 5 nM, Mean
[8] = PBMC + LPS(5 ug/ml) + test article 5 nM, individual replicates
[9] = PBMC + LPS(5 ug/ml) + test article 50 nM, Mean
[10] = PBMC + LPS(5 ug/ml) + test article 50 nM, individual replicates
[11] = PBMC + LPS(5 ug/ml) + test article 500 nM, Mean
[12] = PBMC + LPS(5 ug/ml) + test article 500 nM, individual replicates
[13] = PBMC + test article 0.5 nM, no LPS, Mean
[14] = PBMC + test article 0.5 nM, no LPS, individual replicates (1st, 2nd)
[15] = PBMC + test article 5 nM, no LPS, Mean
[16] = PBMC + test article 5 nM, no LPS, individual replicates (1st, 2nd)
[17] = PBMC + test article 0.05 uM, no LPS, Mean
[18] = PBMC + test article 0.05 uM, no LPS, individual replicates (1st, 2nd)
[19] = PBMC + test article 50 nM, no LPS, Mean
[20] = PBMC + test article 50 nM, no LPS, individual replicates (1st, 2nd)
[21] = PBMC + test article 500 nM, no LPS, Mean
[22] = PBMC + test article 500 nM, no LPS, individual replicates (1st, 2nd)

CC(C)C[C@H](NC(=O)CNC(=O)[C@H](CC(C)C)NC(=O)[C@H](CCC(N)=O)NC(=O)CNC(=O)[C@@H]1C[C@@H](O)CN1)C(=O)N[C@@H](C)C(=O)NCC(=O)N1CCC[C@H]1C(=O)N[C@@H](CCCCN)C(=O)O [YDE-011] (H-[Hyp]GQLGLAGPK-OH)
IL-1 alpha/IL-1F1 Concentration [1]: 510.2 pg/mL
IL-1 alpha/IL-1F1 MFI [1]: 31.2
IL-1 alpha/IL-1F1 Concentration [2]: 595.1 pg/mL and 460.1 pg/mL and 475.3 pg/mL
IL-1 alpha/IL-1F1 MFI [2]: 34.0 and 29.5 and 30.0
IL-1 alpha/IL-1F1 Concentration [3]: 510.3 pg/mL
IL-1 alpha/IL-1F1 MFI [3]: 31.2
IL-1 alpha/IL-1F1 Concentration [4]: 535.6 pg/mL and 550.5 pg/mL and 444.9 pg/mL
IL-1 alpha/IL-1F1 MFI [4]: 32.0 and 32.5 and 29.0
IL-1 alpha/IL-1F1 Concentration [5]: 403.8 pg/mL
IL-1 alpha/IL-1F1 MFI [5]: 27.7
IL-1 alpha/IL-1F1 Concentration [6]: 429.6 pg/mL and 383.2 pg/mL and 398.7 pg/mL
IL-1 alpha/IL-1F1 MFI [6]: 28.5 and 27.0 and 27.5
IL-1 alpha/IL-1F1 Concentration [7]: 324.6 pg/mL
IL-1 alpha/IL-1F1 MFI [7]: 25.2
IL-1 alpha/IL-1F1 Concentration [8]: 256.0 pg/mL and 288.4 pg/mL and 429.6 pg/mL
IL-1 alpha/IL-1F1 MFI [8]: 23.0 and 24.0 and 28.5
IL-1 alpha/IL-1F1 Concentration [9]: 278.0 pg/mL
IL-1 alpha/IL-1F1 MFI [9]: 23.8
IL-1 alpha/IL-1F1 Concentration [10]: 320.3 pg/mL and 84.2 pg/mL and 429.6 pg/mL
IL-1 alpha/IL-1F1 MFI [10]: 25.0 and 18.0 and 28.5
IL-1 alpha/IL-1F1 Concentration [11]: 275.3 pg/mL
IL-1 alpha/IL-1F1 MFI [11]: 24.0
IL-1 alpha/IL-1F1 Concentration [12]: 535.6 pg/mL and 1.9 pg/mL and 288.4 pg/mL
IL-1 alpha/IL-1F1 MFI [12]: 32.0 and 16.0 and 24.0

CC(C)C[C@H](NC(=O)[C@H](CCC(N)=O)NC(=O)CNC(=O)[C@@H]1C[C@@H](O)CN1)C(=O)NCC(=O)O [YDE-043] (H-[Hyp]GQLG-OH; N-terminus and C-terminus assumed)
LPS-induced IL-1a levels (in words) (LPS 5 ug/mL 24 hrs): significantly lowered
IL-1 alpha/IL-1F1 Concentration [1]: 489.6 pg/mL
IL-1 alpha/IL-1F1 MFI [1]: 30.5
IL-1 alpha/IL-1F1 Concentration [2]: 383.2 pg/mL and 490.5 pg/mL and 595.1 pg/mL
IL-1 alpha/IL-1F1 MFI [2]: 27.0 and 30.5 and 34.0
IL-1 alpha/IL-1F1 Concentration [3]: 330.9 pg/mL
IL-1 alpha/IL-1F1 MFI [3]: 25.3
IL-1 alpha/IL-1F1 Concentration [4]: 351.9 pg/ml and 320.3 pg/ml (2×)
IL-1 alpha/IL-1F1 MFI [4]: 26.0 and 25.0 (2×)
IL-1 alpha/IL-1F1 Concentration [5]: 351.9 pg/mL
IL-1 alpha/IL-1F1 MFI [5]: 26.0
IL-1 alpha/IL-1F1 Concentration [6]: 351.9 pg/mL and 367.6 pg/mL and 336.2 pg/mL
IL-1 alpha/IL-1F1 MFI [6]: 26.0 and 26.5 and 25.5
IL-1 alpha/IL-1F1 Concentration [7]: 465.1 pg/mL
IL-1 alpha/IL-1F1 MFI [7]: 29.7
IL-1 alpha/IL-1F1 Concentration [8]: 505.6 pg/ml and 444.9 pg/ml (2×)
IL-1 alpha/IL-1F1 MFI [8]: 31.0 and 29.0 (2×)
IL-1 alpha/IL-1F1 Concentration [9]: 434.5 pg/mL
IL-1 alpha/IL-1F1 MFI [9]: 28.7
IL-1 alpha/IL-1F1 Concentration [10]: 475.3 pg/mL and 444.9 pg/mL and 383.2 pg/mL
IL-1 alpha/IL-1F1 MFI [10]: 30.0 and 29.0 and 27.0
IL-1 alpha/IL-1F1 Concentration [11]: 424.2 pg/mL
IL-1 alpha/IL-1F1 MFI [11]: 28.3
IL-1 alpha/IL-1F1 Concentration [12]: 475.3 pg/mL and 414.2 pg/mL and 383.2 pg/mL
IL-1 alpha/IL-1F1 MFI [12]: 30.0 and 28.0 and 27.0

CC(C)C[C@H](NC(=O)CNC(=O)[C@H](CC(=O)O)NC(=O)[C@H](CCC(N)=O)NC(=O)CNC(=O)[C@@H]1C[C@@H](O)CN1)C(=O)N[C@@H](C)C(=O)NCC(=O)N1CCC[C@H]1C(=O)N[C@@H](CCCCN)C(=O)O [YY-101] (H-[Hyp]GQDGLAGPK-OH; N-terminus and C-terminus assumed)
IL-1 alpha/IL-1F1 Concentration [1]: 424.2 pg/mL
IL-1 alpha/IL-1F1 MFI [1]: 28.3
IL-1 alpha/IL-1F1 Concentration [2]: 414.2 pg/mL and 383.2 pg/mL and 475.3 pg/mL
IL-1 alpha/IL-1F1 MFI [2]: 28.0 and 27.0 and 30.0
IL-1 alpha/IL-1F1 Concentration [3]: 479.4 pg/mL
IL-1 alpha/IL-1F1 MFI [3]: 30.2
IL-1 alpha/IL-1F1 Concentration [4]: 414.2 pg/ml (2×) and 609.8 pg/ml
IL-1 alpha/IL-1F1 MFI [4]: 28.0 (2×) and 34.5
IL-1 alpha/IL-1F1 Concentration [5]: 455.0 pg/mL
IL-1 alpha/IL-1F1 MFI [5]: 29.3
IL-1 alpha/IL-1F1 Concentration [6]: 460.1 pg/ml (2×) and 444.9 pg/ml
IL-1 alpha/IL-1F1 MFI [6]: 29.5 (2×) and 29.0
IL-1 alpha/IL-1F1 Concentration [7]: 485.3 pg/mL
IL-1 alpha/IL-1F1 MFI [7]: 30.3
IL-1 alpha/IL-1F1 Concentration [8]: 444.9 pg/mL and 475.3 pg/mL and 535.6 pg/mL
IL-1 alpha/IL-1F1 MFI [8]: 29.0 and 30.0 and 32.0
IL-1 alpha/IL-1F1 Concentration [9]: 429.2 pg/mL
IL-1 alpha/IL-1F1 MFI [9]: 28.5
IL-1 alpha/IL-1F1 Concentration [10]: 383.2 pg/mL and 398.7 pg/mL and 505.6 pg/mL
IL-1 alpha/IL-1F1 MFI [10]: 27.0 and 27.5 and 31.0
IL-1 alpha/IL-1F1 Concentration [11]: 449.6 pg/mL
IL-1 alpha/IL-1F1 MFI [11]: 29.2
IL-1 alpha/IL-1F1 Concentration [12]: 460.1 pg/mL and 505.6 pg/mL and 383.2 pg/mL
IL-1 alpha/IL-1F1 MFI [12]: 29.5 and 31.0 and 27.0
IL-1 alpha/IL-1F1 Concentration [13]: 155.5 pg/mL
IL-1 alpha/IL-1F1 MFI [13]: 20.0
IL-1 alpha/IL-1F1 Concentration [14]: 155.5 pg/mL
IL-1 alpha/IL-1F1 MFI [14]: 20.0
IL-1 alpha/IL-1F1 Concentration [15]: 155.5 pg/mL
IL-1 alpha/IL-1F1 MFI [15]: 20.0
IL-1 alpha/IL-1F1 Concentration [16]: 155.5 pg/mL
IL-1 alpha/IL-1F1 MFI [16]: 20.0
IL-1 alpha/IL-1F1 Concentration [17]: 92.0 pg/mL
IL-1 alpha/IL-1F1 MFI [17]: 18.3
IL-1 alpha/IL-1F1 Concentration [18]: 45.8 pg/mL and 138.1 pg/mL
IL-1 alpha/IL-1F1 MFI [18]: 17.0 and 19.5
IL-1 alpha/IL-1F1 Concentration [19]: 111.1 pg/mL
IL-1 alpha/IL-1F1 MFI [19]: 18.8
IL-1 alpha/IL-1F1 Concentration [20]: 138.1 pg/mL and 84.2 pg/mL
IL-1 alpha/IL-1F1 MFI [20]: 19.5 and 18.0
IL-1 alpha/IL-1F1 Concentration [21]: 84.2 pg/mL
IL-1 alpha/IL-1F1 MFI [21]: 18.0
IL-1 alpha/IL-1F1 Concentration [22]: 84.2 pg/mL
IL-1 alpha/IL-1F1 MFI [22]: 18.0
